Experimental data from patent US6541463B1, “Inhibitors of type 5 and type 3 17β-hydroxysteroid dehydrogenase and methods for their use” (Endorecherche, Inc., priority 1998, dated 2003).
Where two headings read alike, the source gives them in different places.

Columns and labels:
[1] = system: Shionogi mouse mammary carcinoma cells; assay: Antiandrogenic activity: inhibition of DHT-induced proliferation of Shionogi cells; assay type: cell-based; settings: for IC50: Mus musculus
Method: The manner in which the inhibition is determined is described in “Other Tests; B-Androgenic/Antiandrogenic Activity”. Lower numbers are desirable. ND means that a determination was not done.
(§1) Androgenic/antiandrogenic activity of some preferred compounds has been measured using the Shionogi mouse mammary carcinoma cells.
(§2) Minimal essential culture medium (MEM), non-essential amino acids, and fetal calf serum were purchased from Flow Laboratories. In order to remove endogenous steroids, serum was incubated overnight at 4° C. with 1% activated charcoal (Norit A, Fisher) and 0.1% Dextran T-70 (Pharmacia). A 2-h supplementary adsorption was performed at 25° C. in order to further remove protein-bound steroids. Serum was also inactivated by a 20-min incubation at 56° C.
(§3) 5α-dihydrotestosterone (DHT) was obtained from Steraloids. The antiandrogen hydroxyflutamide (OH-FLU) was kindly supplied by Drs. T. L. Nagabuschan and R. Neri (Schering Corporation, Kenilworth, U.S.A.).
(§4) Shionogi male mice bearing androgen-sensitive mammary tumors were obtained from Drs. Keishi Matsumoto, Osaka, Japan, and Yvonne Lefebvre, Ottawa, Canada. For primary culture, tumors were excised and washed in ice-cold sterile 25 mM Hepes buffer (137 mM NaCl; 5 mM KCl; 0.7 mM Na2HPO4; 10 mM glucose, pH 7.2). After mincing with scissors, the tumor minces were digested for 2 h at 37° C. in Hepes buffer containing 3.8 mg/ml collagenase (Clostridium, Boehringer), 1.5 mg/ml hyaluronidase II (Sigma), and 3% bovine serum albumin fraction V (Schwartz-Mann). Dispersed cells were collected by centrifugation (500×g for 10 min), washed twice by suspension in minimal essential medium (MEM) containing 5% dextran-coated charcoal-treated fetal calf serum (DCC-FCS), 1% non-essential amino acids, 10 IU/ml penicillin, 50 μg/ml streptomycin, and 100 nM dihydrotestosterone (DHT) (Steraloids).
(§5) Cells were plated in the same medium at a density of 75 000 cells/ml in 75 cm^2 flasks under an atmosphere of 5% carbon dioxide in air at 37° C. The medium was changed weekly. The steroids and antisteroids were dissolved in ethanol and kept in stock solutions chosen to yield final ethanol concentrations less than 0.01% in the culture medium.
(§6) Cells were subcultured at near-confidence by gentle digestion in a solution of 0.1% pancreatin (Flow Laboratories) in Hepes buffer containing 3 mM ethylenediaminetetraacetic acid (EDTA) (pH 7.2). Cells were pelleted by centrifugation, resuspended in culture medium, counted in a Coulter counter, and replated as described above. Soft agar cloning was performed as described (Stanley et al., Cell 10: 35-44, 1977) in the presence of 100 nM DHT.
(§7) Cells were plated in 24-well plates at a density of 20 000 cells/well. The indicated increasing concentrations of agents were added to triplicate dishes, and cells were grown for 10-12 days with changes of medium every 3-4 days. Cell number was measured by direct counting in a Coulter counter.
(§8) ED50 values of action of DHT and glucocorticoids were calculated according to a least-square regression as described (Rodbard, Endocrinology 94: 1427-1431, 1974). Statistical significance was calculated according to a multiple-range test (Kramer, Biometrics 12: 307-310,1956).

[2] = system: Shionogi mouse mammary carcinoma cells; assay: Androgenic activity: stimulation of proliferation of Shionogi cells; assay type: cell-based
Method: In column 9, the androgenic activity of preferred type 5 inhibitors expressed as the percentage of stimulation of proliferation of Shionogi cells at concentrations of 10^−7 M (left number) and 10^−6 M (right number) of inhibitor. The manner in which the stimulation is determined is described in “Other Tests; B-Androgenic/Antiandrogenic Activity”. Lower numbers are desirable. ND means that a determination was not done.
as §1, §2, §3, §4, §5, §6, §7, §8

[3] = Table 4′, DHT-induced proliferation, E^−6 (10^−6 M)
[4] = Table 4′, DHT-induced proliferation, E^−7
[5] = read-out: Antiandrogenic Activity Shionogi, DHT [IC50]

CN1C(=O)C=C[C@]2(C)C3CC[C@@]4(C)C(CC[C@@]45CCCC(=O)O5)C3CCC12 (some centres unmarked) [EM-1122-CS] was tested, and the IC50 ([1]; Table 5, bracketed value, read-out: Antiandrogenic Activity Shlonogl, DHT [IC50 (nM)]) was 447 nM, the “Antiandrogenic Activity Shlonogl, DHT E^−6” value ([1]; Table 5, DHT, E^−6) was −74% and the “Antiandrogenic Activity Shlonogl, DHT E^−7” value ([1]; Table 5, DHT, E^−7) was −14%. For the same compound, the “Androgenic Activity Shlonogl, Basal E^−6” value ([2]; Table 5 column 9, E^−6) was −11% and the “Androgenic Activity Shlonogl, Basal E^−7” value ([2]; Table 5 column 9, E^−7) was 0%.

For C[C@]12CCC3c4cc([N+](=O)[O-])c(O)cc4CCC3C1CC[C@@]21CCCC(=O)O1 (stereo partly drawn) [EM-1124, 2-Nitro-1,3,5(10)-estraetriene-3-ol-17(R)-spiro-2′-(6′-oxo)tetrahydropyran], the “Antiandrogenic Activity Shionogi, DHT E^−6” value [1, 3] was −65%, the “Antiandrogenic Activity Shionogi, DHT E^−7” value [1, 4] was 0% and the “Androgenic Activity Shionogi, Basal E^−6” value ([2]; Table 4′, E^−6) was −11%. For the same compound, the “Androgenic Activity Shionogi, Basal E^−7” value ([2]; Table 4′, E^−7) was 0%.

In the case of CC1(C)CCC2(CCC3C4CCc5cc(O)c([N+](=O)[O-])cc5C4CCC32C)OC1=O (centres unmarked) [EM-1125-CS], the “Antiandrogenic Activity Shionogi, DHT E^−6” value [1, 3] is reported as −43%, the “Antiandrogenic Activity Shionogi, DHT E^−7” value [1, 4] is reported as −30% and the “Androgenic Activity Shionogi, Basal E^−6” value ([2]; Table 4′, E^−6) is reported as −10%. For the same compound, the “Androgenic Activity Shionogi, Basal E^−7” value ([2]; Table 4′, E^−7) was 3%.

In the case of CC1CCC2(CCC3C4CCc5cc(O)c([N+](=O)[O-])cc5C4CCC32C)OC1=O [EM-1126, 2-Nitro-1,3,5(10)-estratrien-3-ol-17(R)-spiro-2′-(5′-methyl-6′-oxo)tetrahydropyran], the “Antiandrogenic Activity Shionogi, DHT E^−6” value [1, 3] is reported as −49%, the “Antiandrogenic Activity Shionogi, DHT E^−7” value [1, 4] is reported as 0% and the “Androgenic Activity Shionogi, Basal E^−6” value ([2]; Table 4′, E^−6) is reported as −8%. The “Androgenic Activity Shionogi, Basal E^−7” value ([2]; Table 4′, E^−7) was 0%.

For CC1CCC2(CCC3C4CCc5cc(O)c([N+](=O)[O-])cc5C4CCC32C)OC1=O [EM-1131, 2-Nitro-1,3,5(10)-estratrien-3-ol-17(R)-spiro-2′-(5′-methyl-6′-oxo)tetrahydropyran], the “Antiandrogenic Activity Shionogi, DHT E^−6” value [1, 3] was −47%, the “Antiandrogenic Activity Shionogi, DHT E^−7” value [1, 4] was −15% and the “Androgenic Activity Shionogi, Basal E^−6” value ([2]; Table 4′, E^−6) was 0%. The “Androgenic Activity Shionogi, Basal E^−7” value ([2]; Table 4′, E^−7) was 0%.

For CC1(C)CC[C@@]2(CCC3C4CCc5cc(F)ccc5C4CC[C@@]32C)OC1=O (some centres unmarked) [EM-1157-CS], the “Antiandrogenic Activity Shionogi, DHT E^−6” value [1, 3] was −19%, the “Antiandrogenic Activity Shionogi, DHT E^−7” value [1, 4] was 0% and the “Androgenic Activity Shionogi, Basal E^−6” value ([2]; Table 4′, E^−6) was −12%. The “Androgenic Activity Shionogi, Basal E^−7” value ([2]; Table 4′, E^−7) was 16%.

For CC(=O)O[C@]1(C(=O)N(C)C)CCC2C3C=C(C)C4=CC(=O)CC[C@]4(C)C3CC[C@@]21C (some centres unmarked) [EM-1159], the “Antiandrogenic Activity Shionogi, DHT” value ([1]; DHT, E^−6) was −71, the “Antiandrogenic Activity Shionogi, DHT” value ([1]; DHT, E^−7) was 1 and the “Androgenic Activity Shionogi, Basal” value ([2]; E^−6) was −14. The “Androgenic Activity Shionogi, Basal” value ([2]; E^−7) was 15.

CCCCN(C)C(=O)[C@@]1(OC(C)=O)CCC2C3C=C(C)C4=CC(=O)CC[C@]4(C)C3CC[C@@]21C (some centres unmarked) [EM-1165] was tested, and the “Antiandrogenic Activity Shionogi, DHT” value ([1]; DHT, E^−6) was −102, the “Antiandrogenic Activity Shionogi, DHT” value ([1]; DHT, E^−7) was −14 and the IC50 [1, 5] was 232 nM. The “Androgenic Activity Shionogi, Basal” value ([2]; E^−6) was −17 and the “Androgenic Activity Shionogi, Basal” value ([2]; E^−7) was 5.

CC12CCC3c4ccc(F)cc4CCC3C1CCC21CCCC(=O)O1 (centres unmarked) [EM-1170-CS] was tested, and the “Antiandrogenic Activity Shionogi, DHT E^−6” value [1, 3] was −38%, the “Antiandrogenic Activity Shionogi, DHT E^−7” value [1, 4] was 15% and the “Androgenic Activity Shionogi, Basal E^−6” value ([2]; Table 4′, E^−6) was −27%. The “Androgenic Activity Shionogi, Basal E^−7” value ([2]; Table 4′, E^−7) was 12%.

For CCC[C@]1(F)CC2C3C=CC4=CC(=O)CC[C@]4(C)C3CC[C@]2(C)C1=O (some centres unmarked) [EM-1183], the “Antiandrogenic Activity Shionogi, DHT E^−6” value ([1]; with DHT, E^−6) was −51, the “Antiandrogenic Activity Shionogi, DHT E^−7” value ([1]; with DHT, E^−7) was 0 and the “Androgenic Activity Shionogi, Basal E^−6” value ([2]; E^−6) was −17. The “Androgenic Activity Shionogi, Basal E^−7” value ([2]; E^−7) was 0.

For COCCOc1cc2c(cc1C(=O)N(C)C)C1CCC3(C)C(CCC34CCC(C)(C)C(=O)O4)C1CC2 (centres unmarked) [EM-1413-CS], the “Antiandrogenic Activity Shionogi, DHT E^−6” value [1, 3] was −44%.

In the case of CC(=O)O[C@]1(C(C)=O)CCC2C3C=C(C)C4=CC(=O)CC[C@]4(C)C3CC[C@@]21C (some centres unmarked) [megestrol acetate, reference compound], the IC50 [1, 5] is reported as 10 nM.
